# In ChEMBL document CHEMBL1201862, “PubChem BioAssay data set” (2004):
# Active and inactive are the calls of the source.
# What was measured:
# NADPH oxidase 1 = target: T1, NADPH oxidase 1 (Homo sapiens, UniProt Q9Y5S8); test: Late-stage luminescence-based cell-based dose response assay to identify inhibitors of NADPH oxidase 1 (NOX1): Purchased analogs 2.; type: functional
# T1 sequence (Q9Y5S8 whole entry): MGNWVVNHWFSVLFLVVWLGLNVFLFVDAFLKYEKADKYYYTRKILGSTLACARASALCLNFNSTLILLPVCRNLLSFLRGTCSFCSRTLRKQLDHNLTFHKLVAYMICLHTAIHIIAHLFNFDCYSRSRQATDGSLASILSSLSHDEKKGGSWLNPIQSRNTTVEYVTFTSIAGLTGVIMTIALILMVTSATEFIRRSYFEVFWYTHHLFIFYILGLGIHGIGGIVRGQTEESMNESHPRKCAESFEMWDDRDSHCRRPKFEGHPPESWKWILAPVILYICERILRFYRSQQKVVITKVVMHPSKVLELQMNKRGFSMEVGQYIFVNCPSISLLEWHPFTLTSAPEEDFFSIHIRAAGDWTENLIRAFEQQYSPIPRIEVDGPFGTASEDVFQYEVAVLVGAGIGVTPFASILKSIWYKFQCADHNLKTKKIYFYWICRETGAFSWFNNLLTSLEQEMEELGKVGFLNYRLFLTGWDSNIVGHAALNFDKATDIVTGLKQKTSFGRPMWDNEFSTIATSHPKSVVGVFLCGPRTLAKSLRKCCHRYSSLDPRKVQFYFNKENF
# [1] = target: Peroxisome proliferator-activated receptor gamma/Nuclear receptor corepressor 2 (Homo sapiens, UniProt P37231+Q9Y618); test: Counterscreen for NR2E3 inverse agonists: TR-FRET-based biochemical high throughput dose response assay to identify inverse agonists of the interaction between peroxisome proliferator-activated receptor gamma (PPARg) and nuclear receptor co-repressor 2 (NCOR2).; type: functional
# Chain of Peroxisome proliferator-activated receptor gamma/Nuclear receptor corepressor 2 (P37231 whole entry): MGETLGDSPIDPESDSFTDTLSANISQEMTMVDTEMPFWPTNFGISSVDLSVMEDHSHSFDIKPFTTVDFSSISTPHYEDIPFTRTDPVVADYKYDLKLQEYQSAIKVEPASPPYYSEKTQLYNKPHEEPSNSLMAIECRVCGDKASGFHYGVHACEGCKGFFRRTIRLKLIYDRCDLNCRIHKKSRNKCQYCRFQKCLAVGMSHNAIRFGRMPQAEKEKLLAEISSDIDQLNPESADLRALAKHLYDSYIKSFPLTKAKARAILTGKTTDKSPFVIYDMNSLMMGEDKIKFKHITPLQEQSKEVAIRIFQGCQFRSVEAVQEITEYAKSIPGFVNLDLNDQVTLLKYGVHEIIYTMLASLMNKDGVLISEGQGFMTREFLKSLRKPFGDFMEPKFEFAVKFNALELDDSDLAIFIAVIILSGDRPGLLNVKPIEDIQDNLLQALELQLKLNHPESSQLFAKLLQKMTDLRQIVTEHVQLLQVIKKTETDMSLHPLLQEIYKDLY
# Chain of Peroxisome proliferator-activated receptor gamma/Nuclear receptor corepressor 2 (Q9Y618 whole entry): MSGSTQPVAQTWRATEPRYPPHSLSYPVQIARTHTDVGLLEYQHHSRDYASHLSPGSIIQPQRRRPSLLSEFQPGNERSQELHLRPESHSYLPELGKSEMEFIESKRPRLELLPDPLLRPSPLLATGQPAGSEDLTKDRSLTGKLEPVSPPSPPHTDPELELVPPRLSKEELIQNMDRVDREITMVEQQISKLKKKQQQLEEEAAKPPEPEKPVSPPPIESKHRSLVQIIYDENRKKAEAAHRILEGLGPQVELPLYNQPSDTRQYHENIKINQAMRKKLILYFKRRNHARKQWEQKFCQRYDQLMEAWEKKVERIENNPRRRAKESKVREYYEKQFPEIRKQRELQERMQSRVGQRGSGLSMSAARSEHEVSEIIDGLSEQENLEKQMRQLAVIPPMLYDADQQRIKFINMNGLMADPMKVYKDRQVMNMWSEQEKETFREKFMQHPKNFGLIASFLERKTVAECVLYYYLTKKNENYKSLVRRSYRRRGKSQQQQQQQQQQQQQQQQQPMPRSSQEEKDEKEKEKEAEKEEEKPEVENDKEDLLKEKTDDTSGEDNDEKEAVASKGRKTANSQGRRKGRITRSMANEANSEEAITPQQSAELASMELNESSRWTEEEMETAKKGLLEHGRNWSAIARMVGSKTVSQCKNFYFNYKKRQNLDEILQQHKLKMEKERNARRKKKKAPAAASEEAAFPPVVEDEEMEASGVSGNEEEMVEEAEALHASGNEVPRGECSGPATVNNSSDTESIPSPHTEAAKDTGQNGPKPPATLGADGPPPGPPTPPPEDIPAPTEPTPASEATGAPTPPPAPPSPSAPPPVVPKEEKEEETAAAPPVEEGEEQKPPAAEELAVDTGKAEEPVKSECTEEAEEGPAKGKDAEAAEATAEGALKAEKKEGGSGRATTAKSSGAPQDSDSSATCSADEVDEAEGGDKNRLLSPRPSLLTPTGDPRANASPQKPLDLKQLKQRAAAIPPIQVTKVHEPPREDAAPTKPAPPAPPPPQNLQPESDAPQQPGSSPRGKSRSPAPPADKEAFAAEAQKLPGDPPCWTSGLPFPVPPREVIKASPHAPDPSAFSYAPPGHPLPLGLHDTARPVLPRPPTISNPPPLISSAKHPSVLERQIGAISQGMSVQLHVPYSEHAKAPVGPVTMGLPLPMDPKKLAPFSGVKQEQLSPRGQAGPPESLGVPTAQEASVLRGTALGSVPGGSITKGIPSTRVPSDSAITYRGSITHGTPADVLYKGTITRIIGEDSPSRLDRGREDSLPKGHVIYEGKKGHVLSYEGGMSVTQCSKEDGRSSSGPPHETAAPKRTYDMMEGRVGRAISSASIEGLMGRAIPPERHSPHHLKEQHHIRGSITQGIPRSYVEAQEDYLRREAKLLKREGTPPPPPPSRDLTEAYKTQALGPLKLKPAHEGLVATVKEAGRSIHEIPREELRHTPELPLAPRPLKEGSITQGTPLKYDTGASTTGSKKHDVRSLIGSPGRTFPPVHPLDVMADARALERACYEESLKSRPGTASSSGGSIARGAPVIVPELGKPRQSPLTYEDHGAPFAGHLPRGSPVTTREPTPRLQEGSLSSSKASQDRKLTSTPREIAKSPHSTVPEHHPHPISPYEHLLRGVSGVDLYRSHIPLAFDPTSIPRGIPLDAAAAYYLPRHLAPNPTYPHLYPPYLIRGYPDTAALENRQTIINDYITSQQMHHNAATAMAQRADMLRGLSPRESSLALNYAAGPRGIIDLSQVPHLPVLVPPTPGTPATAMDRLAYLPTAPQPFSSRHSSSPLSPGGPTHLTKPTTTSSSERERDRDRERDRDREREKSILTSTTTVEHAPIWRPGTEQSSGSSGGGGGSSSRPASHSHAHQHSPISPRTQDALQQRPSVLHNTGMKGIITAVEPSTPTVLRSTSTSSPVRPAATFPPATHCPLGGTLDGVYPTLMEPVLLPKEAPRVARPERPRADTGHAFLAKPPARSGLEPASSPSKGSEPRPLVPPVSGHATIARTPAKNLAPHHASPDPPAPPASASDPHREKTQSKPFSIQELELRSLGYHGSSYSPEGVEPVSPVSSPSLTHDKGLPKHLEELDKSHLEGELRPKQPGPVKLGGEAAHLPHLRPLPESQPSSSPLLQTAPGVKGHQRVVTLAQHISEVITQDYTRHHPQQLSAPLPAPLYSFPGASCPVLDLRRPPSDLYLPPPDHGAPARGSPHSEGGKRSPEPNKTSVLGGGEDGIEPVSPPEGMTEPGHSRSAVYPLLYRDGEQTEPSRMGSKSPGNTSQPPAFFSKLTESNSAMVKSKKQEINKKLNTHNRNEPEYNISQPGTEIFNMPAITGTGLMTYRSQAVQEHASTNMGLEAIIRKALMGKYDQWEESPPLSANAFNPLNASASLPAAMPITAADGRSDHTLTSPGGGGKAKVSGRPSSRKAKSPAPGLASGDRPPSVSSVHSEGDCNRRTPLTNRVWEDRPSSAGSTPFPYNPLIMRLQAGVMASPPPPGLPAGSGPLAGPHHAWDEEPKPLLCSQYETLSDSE
# [2] = target: Photoreceptor-specific nuclear receptor (Homo sapiens, UniProt Q9Y5X4); test: NR2E3 inverse agonists, dose response, biochemical, TR-FRET (AID 463256); type: functional
# Chain of Photoreceptor-specific nuclear receptor (Q9Y5X4 whole entry): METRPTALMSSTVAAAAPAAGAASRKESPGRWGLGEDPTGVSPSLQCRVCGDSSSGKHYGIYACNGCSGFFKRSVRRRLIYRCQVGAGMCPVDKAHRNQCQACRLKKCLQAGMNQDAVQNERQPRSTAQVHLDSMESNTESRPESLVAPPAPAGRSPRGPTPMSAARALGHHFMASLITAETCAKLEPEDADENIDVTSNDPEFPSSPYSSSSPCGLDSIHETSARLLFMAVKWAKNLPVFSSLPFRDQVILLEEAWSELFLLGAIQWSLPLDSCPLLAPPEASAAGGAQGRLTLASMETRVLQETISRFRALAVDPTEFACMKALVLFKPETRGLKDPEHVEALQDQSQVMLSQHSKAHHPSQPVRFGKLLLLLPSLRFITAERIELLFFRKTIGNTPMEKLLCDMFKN
# [3] = target: T2, Short transient receptor potential channel 4 (Mus musculus, UniProt Q9QUQ5); test: mouse TRPC4 channel inhibitors, dose response, cell-based, HEK293 TRPC4/mu-opioid, Fluo-4 calcium (AID 434942); type: functional;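 note: potency of inhibitors blocking the TRPC4 calcium response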
# T2 sequence (Q9QUQ5 whole entry): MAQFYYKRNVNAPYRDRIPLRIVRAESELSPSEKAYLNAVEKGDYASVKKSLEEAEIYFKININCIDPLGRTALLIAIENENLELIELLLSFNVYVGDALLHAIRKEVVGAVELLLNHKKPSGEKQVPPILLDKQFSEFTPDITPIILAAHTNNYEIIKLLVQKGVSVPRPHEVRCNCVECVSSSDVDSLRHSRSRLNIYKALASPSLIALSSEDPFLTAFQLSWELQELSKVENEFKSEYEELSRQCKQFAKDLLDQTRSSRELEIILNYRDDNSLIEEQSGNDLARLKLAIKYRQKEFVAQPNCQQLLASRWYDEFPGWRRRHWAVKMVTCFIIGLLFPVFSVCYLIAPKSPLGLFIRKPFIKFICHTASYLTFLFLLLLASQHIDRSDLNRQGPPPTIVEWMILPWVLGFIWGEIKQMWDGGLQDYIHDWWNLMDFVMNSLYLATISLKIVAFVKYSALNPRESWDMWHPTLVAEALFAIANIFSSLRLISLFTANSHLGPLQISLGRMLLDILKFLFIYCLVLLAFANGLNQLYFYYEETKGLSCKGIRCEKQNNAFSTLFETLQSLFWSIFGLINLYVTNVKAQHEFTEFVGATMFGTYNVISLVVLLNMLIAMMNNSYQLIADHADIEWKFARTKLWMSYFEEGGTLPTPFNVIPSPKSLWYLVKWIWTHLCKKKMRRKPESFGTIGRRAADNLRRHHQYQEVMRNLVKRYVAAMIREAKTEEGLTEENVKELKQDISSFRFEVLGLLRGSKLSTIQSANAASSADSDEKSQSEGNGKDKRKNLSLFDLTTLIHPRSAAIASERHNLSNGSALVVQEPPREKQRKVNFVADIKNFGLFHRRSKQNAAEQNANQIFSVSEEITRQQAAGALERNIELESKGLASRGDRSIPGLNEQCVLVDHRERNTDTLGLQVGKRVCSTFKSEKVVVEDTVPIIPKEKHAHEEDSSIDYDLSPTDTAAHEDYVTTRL
# [4] = HEK293T cell cytotoxicity, dose response, cytotoxicity control, plate reader, dry powder, set 10 (AID 743315); type: functional, cell-based; details: HEK293
# [5] = antifungal activity, alamar blue, dry powder, counter-screen for C. neoformans cell wall antifungals, dose response (AID 743128); type: functional, organism-based
# [6] = Vero cell cytotoxicity, dose response, cytotoxicity control for Vif-APOBEC3G degradation inhibitor project, Vero cells (AID 1117358); type: functional; details: Human immunodeficiency virus 1, Vero
# [7] = target: T3, Calpain-2 catalytic subunit (Sus scrofa, UniProt P43367); test: pig calpain II inhibitor potency, dose response, biochemical, fluorogenic peptide substrate (AID 1420); type: functional
# T3 sequence (P43367 whole entry): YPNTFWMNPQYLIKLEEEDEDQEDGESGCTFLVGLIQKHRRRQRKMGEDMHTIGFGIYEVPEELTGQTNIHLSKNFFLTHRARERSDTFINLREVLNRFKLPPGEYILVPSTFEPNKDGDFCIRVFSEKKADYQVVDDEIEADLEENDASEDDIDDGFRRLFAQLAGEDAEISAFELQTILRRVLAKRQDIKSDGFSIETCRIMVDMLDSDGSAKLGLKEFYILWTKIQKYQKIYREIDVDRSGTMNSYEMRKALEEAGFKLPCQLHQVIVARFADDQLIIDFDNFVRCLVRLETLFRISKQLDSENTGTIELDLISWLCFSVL
# [8] = target: T4, Ubiquitin-conjugating enzyme E2 N (Homo sapiens, UniProt P61088); type: functional
# T4 sequence (P61088 whole entry): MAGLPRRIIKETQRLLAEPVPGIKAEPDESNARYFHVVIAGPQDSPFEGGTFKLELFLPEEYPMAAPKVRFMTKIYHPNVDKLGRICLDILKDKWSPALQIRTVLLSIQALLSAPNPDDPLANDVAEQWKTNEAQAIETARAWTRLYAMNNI
# Genome polyprotein [9] = target: T5, Genome polyprotein (Hepatitis C virus, UniProt Q2Q167); test: Late stage assay provider counterscreen results for the probe development effort to identify inhibitors of Hepatitis C Virus (HCV) core protein dimerization: Luminescence-based biochemical AlphaScreen assay to identify inhibitors of HCV core dimerization.; type: functional, Hepacivirus hominis
# T5 sequence (Q2Q167 whole entry): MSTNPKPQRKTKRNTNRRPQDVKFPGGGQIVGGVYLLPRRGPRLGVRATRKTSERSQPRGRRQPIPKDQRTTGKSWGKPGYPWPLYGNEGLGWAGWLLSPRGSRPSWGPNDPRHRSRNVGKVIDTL
# Genome polyprotein [10] = target: T5, Genome polyprotein; test: HCV core protein dimerization inhibitors, dose response, biochemical, TR-FRET (AID 2159); design: species or system Hepacivirus hominis;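 note: blocks dimerization of HCV core protein measured by TR-FRET between tagged core106 pairs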
# [11] = target: T4, Ubiquitin-conjugating enzyme E2 N; type: functional; remark: listed apart in the source
# Bcl-2-related protein A1 = target: T6, Bcl-2-related protein A1 (Mus musculus, UniProt Q07440); type: functional;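 note: confirmatory dose–response counterscreen on Bfl-1, used to check hits from a UBC13 polyubiquitin inhibitor campaign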
# T6 sequence (Q07440 whole entry): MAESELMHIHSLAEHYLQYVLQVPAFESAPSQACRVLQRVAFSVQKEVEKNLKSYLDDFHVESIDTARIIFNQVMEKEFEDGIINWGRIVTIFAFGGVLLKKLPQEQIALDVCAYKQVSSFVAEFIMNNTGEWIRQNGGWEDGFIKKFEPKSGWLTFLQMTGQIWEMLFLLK
# Transthyretin = Transthyretin (Homo sapiens, UniProt P02766); test: Luminescence-based cell-based high throughput dose response assay to identify activators of Transthyretin (TTR) transcription.; type: functional
# [12] = test system: Streptococcus sp. 'group A'; test: growth inhibition of control SK(-) GAS strain, dose response, counter-screen for streptokinase expression inhibitor project, luminescence, kanamycin, BacTiterGlo, confirmation (AID 1900); type: functional, organism-based
# [13] = HEp-2 cell cytotoxicity, dose response, cytotoxicity control for RSV inhibitor project, HTS (AID 2410); type: functional; details: human respiratory syncytial virus
# Streptokinase A = target: T7, Streptokinase A (Streptococcus pyogenes serotype M1, UniProt P10520); test: S. pyogenes streptokinase expression inhibitors, potency, dose response, plasminogen activation absorbance, OD405 (AID 1914); type: functional, Streptococcus pyogenes M1 GAS;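 note: secreted streptokinase activity via plasminogen activation per viability signal from cell pellet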
# T7 sequence (P10520 whole entry): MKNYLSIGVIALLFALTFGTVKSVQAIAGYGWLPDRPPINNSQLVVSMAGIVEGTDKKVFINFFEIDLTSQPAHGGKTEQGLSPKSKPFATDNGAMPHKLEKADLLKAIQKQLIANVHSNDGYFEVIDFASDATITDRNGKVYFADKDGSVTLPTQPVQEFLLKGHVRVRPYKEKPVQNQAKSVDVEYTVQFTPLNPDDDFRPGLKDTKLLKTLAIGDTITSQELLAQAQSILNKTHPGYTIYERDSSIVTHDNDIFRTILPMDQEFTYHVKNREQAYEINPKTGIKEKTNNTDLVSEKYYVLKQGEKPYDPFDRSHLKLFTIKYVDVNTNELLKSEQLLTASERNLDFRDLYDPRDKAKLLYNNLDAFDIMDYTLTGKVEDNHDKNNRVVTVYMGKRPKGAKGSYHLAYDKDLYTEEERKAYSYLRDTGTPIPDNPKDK
# Streptococcus = test: Group A Streptococcus viability loss, dose response, counter-screen for streptokinase expression inhibitor project, luminescence, BacTiterGlo (AID 1915); type: functional, organism-based;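 note: potency for reduction of bacterial viability or growth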
# [14] = M. tuberculosis growth inhibition, HTS (AID 449762); type: functional
structure (smiles),measurement,setting,value
S=C(NNC(=S)Nc1ccccc1)Nc1ccccc1,IC50,NADPH oxidase 1,0.321 µM (active)
CCOCCCNC(=O)c1cc(-c2ccc(Br)s2)nc2ccccc12,IC50,[1],4.18 µM (active)
same,IC50,[2],6.67 µM (active)
Cc1ccc(OCCn2c(C)nc3ccccc32)cc1,EC50,[3],0.944 µM (active)
same,AC50,[4],40.5 µM (active)
same,AC50,[5],41.6 µM (active)
O=[N+]([O-])c1ccc(NCCCNS(=O)(=O)c2ccc(Cl)cc2)c(Cl)c1,CC50,[6],> 40 µM (active)
same,IC50,[7],3.17 µM (not active)
Cc1ccc(Cc2c(C)nc3nc(SCC(=O)NCCCN4CCCCCC4)nn3c2C)cc1,IC50,[8],> 20 µM (inactive)
same,IC50,Genome polyprotein [9],5 µM (active)
same,IC50,Genome polyprotein [10],9.87 µM (active)
same,IC50,[11],13.2 µM (active)
same,IC50,Bcl-2-related protein A1,> 20 µM (inactive)
COc1ccc(-c2cc(C)no2)cc1S(=O)(=O)NCc1cccc(C)c1,EC50,Transthyretin,> 167 µM (inactive)
Oc1ccc(/C=N/n2c3ccccc3c3ccccc32)cc1,EC50,[12],6.24 µM (active)
same,CC50,[13],17.2 µM (active)
same,EC50,Streptokinase A,> 150 µM (not active)
same,EC50,Streptococcus,10.8 µM (active)
same,IC50,[14],> 100 µM (active)
